Laboratory results from US6083977A, “Trienoic retinoid compounds and methods” (Ligand Pharmaceuticals Incorporated, priority 1995, dated 2000).

Experiments:
[1] = tested on: RARs; assay: Co-transfection assay, RAR subfamily; assay type: cell-based, human
Procedure: (§1) Utilizing the "cis-trans" or "co-transfection" assay described by Evans et al., Science, 240:889-95 (May 13, 1988), the disclosure of which is herein incorporated by reference, the retinoid compounds of the present invention were tested and found to have strong, specific activity as either selective RAR agonists, selective RXR agonists, or as pan-agonist activators of both RAR and RXR receptors. This assay is described in further detail in U.S. Pat. Nos. 4,981,784 and 5,071,773, the disclosures of which are incorporated herein by reference.
(§2) The co-transfection assay provides a method for identifying functional agonists which mimic, or antagonists which inhibit, the effect of native hormones, and quantifying their activity for responsive IR proteins. In this regard, the co-transfection assay mimics an in vivo system in the laboratory. Importantly, activity in the co-transfection assay correlates very well with known in vivo activity, such that the co-transfection assay functions as a qualitative and quantitative predictor of a tested compounds in vivo pharmacology. See, e.g., T. Berger et al. 41 J. Steroid Biochem. Molec. Biol. 773 (1992), the disclosure of which is herein incorporated by reference.
(§3) In the co-transfection assay, a cloned cDNA for an IR (e.g., human RARα, RARβ, RXRγ) under the control of a constitutive promoter (e.g., the SV 40 promoter) is introduced by transfection (a procedure to induce cells to take up foreign genes) into a background cell substantially devoid of endogenous IRs. This introduced gene directs the recipient cells to make the IR protein of interest. A second gene is also introduced (co-transfected) into the same cells in conjunction with the IR gene. This second gene, comprising the cDNA for a reporter protein, such as firefly luciferase (LUC), is controlled by an appropriate hormone responsive promoter containing a hormone response element (HRE). This reporter plasmid functions as a reporter for the transcription-modulating activity of the target IR. Thus, the reporter acts as a surrogate for the products (mRNA then protein) normally expressed by a gene under control of the target receptor and its native hormone.
The co-transfection assay can detect small molecule agonists or antagonists of target IRs. Exposing the transfected cells to an agonist ligand compound increases reporter activity in the transfected cells. This activity can be conveniently measured, e.g., by increasing luciferase production, which reflects compound-dependent, IR-mediated increases in reporter transcription. […] . Increasing concentrations of a suspected antagonist will decrease the reporter signal (e.g., luciferase production). The co-transfection assay is therefore useful to detect both agonists and antagonists of specific IRs. Furthermore, it determines not only whether a compound interacts with a particular IR, but whether this interaction mimics (agonizes) or blocks (antagonizes) the effects of the native regulatory molecules on target gene expression, as well as the specificity and strength of this interaction. […]

[2] = tested on: RARs or RXRs; assay: Co-transfection assay, RAR and RXR receptors; assay type: cell-based; settings: for potency profile compared to 9-cis retinoic acid (in words): relative to 9-cis
Procedure: as §1, §2, §3
The co-transfection assay can detect small molecule agonists or antagonists of target IRs. Exposing the transfected cells to an agonist ligand compound increases reporter activity in the transfected cells. This activity can be conveniently measured, e.g., by increasing luciferase production, which reflects compound-dependent, IR-mediated increases in reporter transcription. […] . Increasing concentrations of a suspected antagonist will decrease the reporter signal (e.g., luciferase production). The co-transfection assay is therefore useful to detect both agonists and antagonists of specific IRs. Furthermore, it determines not only whether a compound interacts with a particular IR, but whether this interaction mimics (agonizes) or blocks (antagonizes) the effects of the native regulatory molecules on target gene expression, as well as the specificity and strength of this interaction.
To determine RAR and/or RXR agonist activity of the compounds of the present invention, the CV-1 cells were transiently transfected by calcium phosphate coprecipitation according to the procedure of Berger et al., 41 J. Steroid Biochem. Mol. Biol., 733 (1992) with the following receptor expressing plasmids: pRShRARα: Giguere et al., 330 Nature, 624 (1987); pRShRARβ and pRShRARγ, Ishikawa et al., 4 Mol. Endocrin., 837 (1990); pRShRXRα, Mangelsdorf et al., 345 Nature, 224 (1990); and pRSmRXRβ and pRSmRXRγ, Mangelsdorf et al., 6 Genes & Devel., 329 (1992), the disclosures of which are herein incorporated by reference.

[3] = tested on: ornithine decarboxylase (ODC); assay: Ornithine decarboxylase assay: inhibition of TPA induction of ODC; assay type: cell-based
[4] = tested on: RAR and RXR receptors; assay: Binding to the RAR and RXR receptors; settings: relative to ATRA (RAR) and 9-cis (RXR)

COc1c(C(C)(C)C)cc(/C(C)=C/C=C/C(C)=C/C(=O)O)cc1C(C)(C)C [Compound 47, (2E, 4E, 6E) -3-Methyl-7-(3,5-di-t-butyl-4-methoxyphenyl)octa-2,4,6-trienoic acid]
RAR activity (in words) [1]: extremely potent RAR active compounds
RAR isoform selectivity (in words) [1]: selectivity on RARβ and RARγ

COc1cc(C)c(/C=C/C=C/C=C(\C)C(=O)O)c(C)c1C [C, (2E,4E,6E)-2-methyl-7-(2,3,6-trimethyl-4-methoxyphenyl)hepta-2,4,6-trienoic acid]
activity on any of the RARs or RXRs (in words) [2]: no, or virtually no, activity

CCOC(=O)/C=C(C)/C=C/C=C(\C)c1cc(C(C)(C)C)cc(C(C)(C)C)c1 [Compound 7, Ethyl (2E, 4E, 6E)-7-(315-di-t-butylphenyl)-3-methylocta-2,4,6-trienoate]
retinoid activity of ester analogs (in words) [3]: exhibit retinoid activity

COc1ccc(/C(C)=C/C=C/C(C)=C/C(=O)O)cc1OC [A, (2E,4E,6E)-3-methyl-7-(3,4-dimethoxyphenyl)octa-2,4,6-trienoic acid]
activity on any of the RARs or RXRs (in words) [2]: no, or virtually no, activity

CC(/C=C/C=C(\C)c1cc(C(F)(F)F)cc(C(F)(F)F)c1)=C\C(=O)O [Compound 41, (2E, 4E, 6E)-7-(3,5-Di-trifluoromethylphenyl)-3-methylocta-2,4,6-trienoic acid]
RAR activity (in words) [1]: extremely potent RAR active compounds

CCOC(=O)/C=C(C)/C=C/C=C(/C)c1cc(C(C)(C)C)cc(C(C)(C)C)c1 [Compound 8, Ethyl (2E, 4E, 6Z)-7-(3,5-di-t-butylphenyl)-3-methylocta-2,4,6-trienoate]
retinoid activity of ester analogs (in words) [3]: exhibit retinoid activity

C/C(=C/C=C/C(C)=C/C(=O)O)c1cc(C(C)(C)C)cc(C(C)(C)C)c1 [Compound 10, (2E, 4E, 6Z)-7-(3,5-Di-t-butylphenyl)-3-methylocta-2,4,6-trienoic acid]
binding compared to ATRA and 9-cis (in words) [4]: equal or superior binding
potency profile compared to 9-cis retinoic acid (in words) [2]: superior potency profile

COC(/C=C/C=C(\C)c1ccc(C(C)(C)C)cc1)=C/C(=O)O [D, (2E,4E,6E)-3-methoxy-7-(4-t-butylphenyl)octa-2,4,6-trienoic acid]
activity on any of the RARs or RXRs (in words) [2]: no, or virtually no, activity

CC(/C=C/C=C1\CCOc2c1cc(C(C)(C)C)cc2C(C)(C)C)=C\C(=O)O [Compound 39, (2E,4E,6E)-6-(6,8,-Di-t-butylchroman-4-ylidene)-3-methylhexa-2,4,6-trienoic acid]
RAR activity (in words) [1]: extremely potent RAR active compounds

COc1ccc(/C(C)=C/C=C/C(C)=C/C(=O)O)cc1 [B, (2E, 4E,6E)-3-methyl-7-(4-methoxyphenyl)octa-2,4,6-trienoic acid]
activity on any of the RARs or RXRs (in words) [2]: no, or virtually no, activity

C/C(=C/C=C/C(C)=C/C(=O)O)c1cc(C(C)C)cc(C(C)C)c1 [Compound 43, (2E, 4E, 6Z)-7-(3,5-Di-isopropylphenyl)-3-methylocta-2,4,6-trienoic acid]
potency profile compared to 9-cis retinoic acid (in words) [2]: superior potency profile
